Experimental data reported in BindingDB's records for doi:10.1016/S0960-894X(97)00175-3 (1997).

These compounds were tested against Squalene monooxygenase (Sus scrofa) (assay: In vitro inhibition of pig liver microsomal squalene epoxidase (SE) by measuring the extend of cholesterol radiolabeling after incubation with [14C]mevalonate).

Structure (SMILES) | IC50 [nM]
CCN(C/C=C/C#CC(C)(C)C)Cc1cccc(OC[Si](C)(C)c2ccc(N=[N+]=[N-])cc2)c1 [(3-{[(4-Azido-phenyl)-dimethyl-silanyl]-methoxy}-benzyl)-(6,6-dimethyl-hept-2-en-4-ynyl)-ethyl-amine] | 520
CCN(CC#Cc1ccccc1N=[N+]=[N-])Cc1cccc(OCc2cc(-c3ccsc3)cs2)c1 [[3-(2-Azido-phenyl)-prop-2-ynyl]-[3-([3,3']bithiophenyl-5-ylmethoxy)-benzyl]-ethyl-amine] | > 100000
CCN(CC#Cc1cccc(N=[N+]=[N-])c1)Cc1cccc(OCc2cc(-c3ccsc3)cs2)c1 [[3-(3-Azido-phenyl)-prop-2-ynyl]-[3-([3,3']bithiophenyl-5-ylmethoxy)-benzyl]-ethyl-amine] | 270
CCN(CC#Cc1ccccc1)Cc1cccc(OCc2cc(-c3ccsc3)cs2)c1 [[3-([3,3']Bithiophenyl-5-ylmethoxy)-benzyl]-ethyl-(3-phenyl-prop-2-ynyl)-amine] | 100
CCN(CC#Cc1ccc(N=[N+]=[N-])cc1)Cc1cccc(OCc2cc(-c3ccsc3)cs2)c1 [[3-(4-Azido-phenyl)-prop-2-ynyl]-[3-([3,3']bithiophenyl-5-ylmethoxy)-benzyl]-ethyl-amine] | 960
